Test results as given in US10150771B2, “Triazolopyrazinones as PDE1 inhibitors” (H. Lundbeck A/S, priority 2014, dated 2018).

Columns and labels:
Format in all cases: biochemical
[1] = biological target: PDE1B (Homo sapiens, UniProt Q01064); test: PDE1 inhibition assay (SPA), PDE1B; conditions: for IC50: concentration required to reach 50% inhibition of the enzyme, 15 nM tritium labelled cAMP, read-out: PDE1B inhibition (nM or %): IC50
Method: (§1) PDE1 Inhibition Assay PDE1A, PDE1B and PDE1C assays were performed as follows: the assays were performed in 60 μL samples containing a fixed amount of the PDE1 enzym1 (sufficient to convert 20-25% of the cyclic nucleotide substrate), a buffer (50 mM HEPES pH 7.6; 10 mM MgCl2; 0.02% Tween20), 0.1 mg/ml BSA, 15 nM tritium labelled cAMP and varying amounts of inhibitors. Reactions were initiated by addition of the cyclic nucleotide substrate, and reactions were allowed to proceed for 1 h at room temperature before being terminated through mixing with 20 μL (0.2 mg) yttrium silicate SPA beads (PerkinElmer). The beads were allowed to settle for 1 h in the dark before the plates were counted in a Wallac 1450 Microbeta counter. The measured signals were converted to activity relative to an uninhibited control (100%) and IC50 values were calculated using XIFit (model 205, IDBS).

[2] = biological target: PDE1A (Homo sapiens, UniProt P54750); test: PDE1 inhibition assay (SPA), PDE1A; conditions: for IC50: concentration required to reach 50% inhibition of the enzyme, 15 nM tritium labelled cAMP, read-out: PDE1A inhibition (nM or %): IC50
Method: as §1

[3] = biological target: PDE1C (Homo sapiens, UniProt Q14123); test: PDE1 inhibition assay (SPA), PDE1C; conditions: for IC50: concentration required to reach 50% inhibition of the enzyme, 15 nM tritium labelled cAMP, read-out: PDE1C inhibition (nM or %): IC50
Method: as §1

Chain of PDE1B (Q01064 whole entry): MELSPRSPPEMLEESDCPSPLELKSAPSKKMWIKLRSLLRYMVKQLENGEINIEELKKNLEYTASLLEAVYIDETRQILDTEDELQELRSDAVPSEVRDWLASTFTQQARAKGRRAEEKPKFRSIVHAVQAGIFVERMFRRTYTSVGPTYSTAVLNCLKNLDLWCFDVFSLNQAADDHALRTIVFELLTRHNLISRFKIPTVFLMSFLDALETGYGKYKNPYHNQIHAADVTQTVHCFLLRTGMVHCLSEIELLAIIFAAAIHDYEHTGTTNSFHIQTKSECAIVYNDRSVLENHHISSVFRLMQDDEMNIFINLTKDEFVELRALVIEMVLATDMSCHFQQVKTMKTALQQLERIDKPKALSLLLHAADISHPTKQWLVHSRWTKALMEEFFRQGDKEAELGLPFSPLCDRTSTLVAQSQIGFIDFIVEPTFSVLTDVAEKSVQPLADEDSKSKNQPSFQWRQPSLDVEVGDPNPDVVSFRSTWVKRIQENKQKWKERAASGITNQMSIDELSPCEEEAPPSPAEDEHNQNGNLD
Chain of PDE1A (P54750 whole entry): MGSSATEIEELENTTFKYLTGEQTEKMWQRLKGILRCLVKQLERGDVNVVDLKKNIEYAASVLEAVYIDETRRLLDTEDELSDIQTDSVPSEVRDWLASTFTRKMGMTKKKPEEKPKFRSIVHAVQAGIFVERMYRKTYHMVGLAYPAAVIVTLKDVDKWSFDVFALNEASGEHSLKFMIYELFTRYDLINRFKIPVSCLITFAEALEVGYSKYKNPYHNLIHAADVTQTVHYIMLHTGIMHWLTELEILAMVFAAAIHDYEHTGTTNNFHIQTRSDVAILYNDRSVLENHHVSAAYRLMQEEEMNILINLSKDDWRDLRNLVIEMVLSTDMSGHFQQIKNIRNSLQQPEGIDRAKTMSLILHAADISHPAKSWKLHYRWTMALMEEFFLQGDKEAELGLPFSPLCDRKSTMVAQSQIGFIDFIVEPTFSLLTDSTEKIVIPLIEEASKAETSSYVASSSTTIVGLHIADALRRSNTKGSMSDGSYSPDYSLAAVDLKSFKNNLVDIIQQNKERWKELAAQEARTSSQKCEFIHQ
Chain of PDE1C (Q14123 whole entry): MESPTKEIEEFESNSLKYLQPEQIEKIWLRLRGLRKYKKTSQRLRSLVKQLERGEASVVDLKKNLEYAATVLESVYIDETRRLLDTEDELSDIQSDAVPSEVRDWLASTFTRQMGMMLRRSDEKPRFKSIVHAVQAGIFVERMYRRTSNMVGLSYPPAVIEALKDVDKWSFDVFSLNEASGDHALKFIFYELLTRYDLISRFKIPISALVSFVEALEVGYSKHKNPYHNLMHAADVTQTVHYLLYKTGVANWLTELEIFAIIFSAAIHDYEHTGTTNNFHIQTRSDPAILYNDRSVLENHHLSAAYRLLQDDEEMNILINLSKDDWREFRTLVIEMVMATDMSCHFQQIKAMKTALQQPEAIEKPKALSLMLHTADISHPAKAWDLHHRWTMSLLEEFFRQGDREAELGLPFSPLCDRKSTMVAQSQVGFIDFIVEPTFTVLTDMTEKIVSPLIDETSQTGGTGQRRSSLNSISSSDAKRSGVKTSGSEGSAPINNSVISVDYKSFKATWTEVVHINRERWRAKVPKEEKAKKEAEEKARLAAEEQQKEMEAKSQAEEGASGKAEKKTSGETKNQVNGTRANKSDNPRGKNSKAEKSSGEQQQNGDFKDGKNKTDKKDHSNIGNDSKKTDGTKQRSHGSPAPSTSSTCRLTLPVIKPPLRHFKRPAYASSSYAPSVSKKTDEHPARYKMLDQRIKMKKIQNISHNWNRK

| SMILES | IC50 [1] | IC50 [2] | IC50 [3] | inhibition at 10 µM ([1]; 1 h, % inhibition of the enzyme at a concentration of 10 micro molar of the compound, read-out: PDE1B inhibition (nM or %): % inhib) | inhibition at 10 µM ([2]; 1 h, % inhibition of the enzyme at a concentration of 10 micro molar of the compound, read-out: PDE1A inhibition (nM or %): % inhib) | PDE1C inhibition (nM or %): % inhib ([3]; % inhibition of the enzyme at a concentration of 10 micro molar of the compound) |
| --- | --- | --- | --- | --- | --- | --- |
| CCCc1nnc2c(=O)n(Cc3ccc(Cl)cc3)ccn12 [7-(4-Chlorobenzyl)-3-propyl-[1,2,4]triazolo[4,3-a]pyrazin-8(7H)-one] | 83 nM | 620 nM | 170 nM | – | – | – |
| CCCc1nnc2c(=O)n(Cc3ccc(F)cc3)ccn12 [7-(4-Fluorobenzyl)-3-propyl-[1,2,4]triazolo[4,3-a]pyrazin-8(7H)-one] | 1200 nM | 970 nM | 360 nM | – | – | – |
| COc1ccc(Cn2c(C)cn3c(C4CCOCC4)nnc3c2=O)cc1 [7-(4-methoxybenzyl)-6-methyl-3-(tetrahydro-2H-pyran-4-yl)-[1,2,4]triazolo[4,3-a]pyrazin-8(7H)-one] | 34 nM | 54 nM | 37 nM | – | – | – |
| CCCc1nnc2c(=O)n(Cc3ccc(OC)cc3)c(C)cn12 [7-(4-methoxybenzyl)-6-methyl-3-propyl-[1,2,4]triazolo[4,3-a]pyrazin-8(7H)-one] | 32 nM | 66 nM | 44 nM | – | – | – |
| Cc1ccccc1Cc1cn2c(C3CCOCC3)nnc2c(=O)n1CC1CCCCCC1 [7-(cycloheptylmethyl)-6-(2-methylbenzyl)-3-(tetrahydro-2H-pyran-4-yl)-[1,2,4]triazolo[4,3-a]pyrazin-8(7H)-one] | 39 nM | 25 nM | 14 nM | – | – | – |
| O=c1c2nnc(C3CCOCC3)n2cc(Cc2ccc(F)cc2)n1CC1CCCCCC1 [7-(cycloheptylmethyl)-6-(4-fluorobenzyl)-3-(tetrahydro-2H-pyran-4-yl)-[1,2,4]triazolo[4,3-a]pyrazin-8(7H)-one] | 9 nM | 3 nM | 4 nM | – | – | – |
| Cc1ccc(Cc2cn3c(C4CCOCC4)nnc3c(=O)n2CC2CCCCCC2)cc1 [7-(cycloheptylmethyl)-6-(4-methylbenzyl)-3-(tetrahydro-2H-pyran-4-yl)-[1,2,4]triazolo[4,3-a]pyrazin-8(7H)-one] | 1 nM | 0.86 nM | 0.37 nM | – | – | – |
| Cc1ccccc1Cc1cn2c(C3CCOCC3)nnc2c(=O)n1CC1CCCCC1 [7-(cyclohexylmethyl)-6-(2-methylbenzyl)-3-(tetrahydro-2H-pyran-4-yl)-[1,2,4]triazolo[4,3-a]pyrazin-8(7H)-one] | 44 nM | 41 nM | 10 nM | – | – | – |
| O=c1c2nnc(C3CCOCC3)n2cc(Cc2cccc(F)c2)n1CC1CCCCC1 [7-(cyclohexylmethyl)-6-(3-fluorobenzyl)-3-(tetrahydro-2H-pyran-4-yl)-[1,2,4]triazolo[4,3-a]pyrazin-8(7H)-one] | 22 nM | 24 nM | 6 nM | – | – | – |
| Cc1cccc(Cc2cn3c(C4CCOCC4)nnc3c(=O)n2CC2CCCCC2)c1 [7-(cyclohexylmethyl)-6-(3-methylbenzyl)-3-(tetrahydro-2H-pyran-4-yl)-[1,2,4]triazolo[4,3-a]pyrazin-8(7H)-one] | 3 nM | 2 nM | 1 nM | – | – | – |
| O=c1c2nnc(C3CCOCC3)n2cc(Cc2ccc(F)cc2)n1CC1CCCCC1 [7-(cyclohexylmethyl)-6-(4-fluorobenzyl)-3-(tetrahydro-2H-pyran-4-yl)-[1,2,4]triazolo[4,3-a]pyrazin-8(7H)-one] | 17 nM | 12 nM | 6 nM | – | – | – |
| Cc1ccc(Cc2cn3c(C4CCOCC4)nnc3c(=O)n2CC2CCCCC2)cc1 [7-(cyclohexylmethyl)-6-(4-methylbenzyl)-3-(tetrahydro-2H-pyran-4-yl)-[1,2,4]triazolo[4,3-a]pyrazin-8(7H)-one] | 2 nM | 1 nM | 1 nM | – | – | – |
| Cc1ccccc1Cc1cn2c(C3CCOCC3)nnc2c(=O)n1CC1CCCC1 [7-(cyclopentylmethyl)-6-(2-methylbenzyl)-3-(tetrahydro-2H-pyran-4-yl)-[1,2,4]triazolo[4,3-a]pyrazin-8(7H)-one] | 260 nM | 251 nM | 23 nM | – | – | – |

More lines, now with the values ahead:

| IC50 [1] | IC50 [2] | IC50 [3] | inhibition at 10 µM ([1]; 1 h, % inhibition of the enzyme at a concentration of 10 micro molar of the compound, read-out: PDE1B inhibition (nM or %): % inhib) | inhibition at 10 µM ([2]; 1 h, % inhibition of the enzyme at a concentration of 10 micro molar of the compound, read-out: PDE1A inhibition (nM or %): % inhib) | PDE1C inhibition (nM or %): % inhib ([3]; % inhibition of the enzyme at a concentration of 10 micro molar of the compound) | SMILES |
| --- | --- | --- | --- | --- | --- | --- |
| 930 nM | 1000 nM | 780 nM | – | – | – | CCCc1nnc2c(=O)n(Cc3ccc(C)cc3)ccn12 [7-(4-Methylbenzyl)-3-propyl-[1,2,4]triazolo[4,3-a]pyrazin-8(7H)-one] |
| 950 nM | 1300 nM | 260 nM | – | – | – | CCCc1nnc2c(=O)n(CC3(C)CCCCC3)ccn12 [7-((1-methylcyclohexyl)methyl)-3-propyl-[1,2,4]triazolo[4,3-a]pyrazin-8(7H)-one] |
| 420 nM | 450 nM | 760 nM | – | – | – | CCCc1nnc2c(=O)n(CC3CCC(F)(F)CC3)ccn12 [7-((4,4-difluorocyclohexyl)methyl)-3-propyl-[1,2,4]triazolo[4,3-a]pyrazin-8(7H)-one] |
| 110 nM | 130 nM | 110 nM | – | – | – | CCCc1nnc2c(=O)n(CC3CCC(C)(C)CC3)ccn12 [7-((4,4-dimethylcyclohexyl)methyl)-3-propyl-[1,2,4]triazolo[4,3-a]pyrazin-8(7H)-one] |
| 210 nM | 179 nM | 63 nM | – | – | – | CCCc1nnc2c(=O)n(CC3C4CC5CC(C4)CC3C5)ccn12 (stereo not drawn) [7-(((1r,3r,5r,7r)-adamantan-2-yl)methyl)-3-propyl-[1,2,4]triazolo[4,3-a]pyrazin-8(7H)-one] |
| 210 nM | 180 nM | 63 nM | – | – | – | CCCc1nnc2c(=O)n(CC34CC5CC(CC(C5)C3)C4)ccn12 [7-(((3r,5r,7r)-adamantan-1-yl)methyl)-3-propyl-[1,2,4]triazolo[4,3-a]pyrazin-8(7H)-one] |
| 33 nM | 43 nM | 42 nM | – | – | – | O=c1c2nnc(C3CCOCC3)n2ccn1CC1CCCCCC1 [7-(Cycloheptylmethyl)-3-(tetrahydro-2H-pyran-4-yl)-[1,2,4]triazolo[4,3-a]pyrazin-8(7H)-one] |
| 28 nM | 54 nM | 33 nM | – | – | – | CCCc1nnc2c(=O)n(CC3CCCCCC3)ccn12 [7-(Cycloheptylmethyl)-3-propyl-[1,2,4]triazolo[4,3-a]pyrazin-8(7H)-one] |
| 190 nM | 220 nM | 87 nM | – | – | – | O=c1c2nnc(C3CCOCC3)n2ccn1CC1CCCCC1 [7-(Cyclohexylmethyl)-3-(tetrahydro-2H-pyran-4-yl)-[1,2,4]triazolo[4,3-a]pyrazin-8(7H)-one] |
| 81 nM | 96 nM | 47 nM | – | – | – | CCCc1nnc2c(=O)n(CC3CCCCC3)ccn12 [7-(Cyclohexylmethyl)-3-propyl-[1,2,4]triazolo[4,3-a]pyrazin-8(7H)-one] |
| 990 nM | 1100 nM | 110 nM | – | – | – | O=c1c2nnc(C3CCOCC3)n2ccn1CC1CCCC1 [7-(Cyclopentylmethyl)-3-(tetrahydro-2H-pyran-4-yl)-[1,2,4]triazolo[4,3-a]pyrazin-8(7H)-one] |
| 820 nM | 840 nM | 95 nM | – | – | – | CCCc1nnc2c(=O)n(CC3CCCC3)ccn12 [7-(Cyclopentylmethyl)-3-propyl-[1,2,4]triazolo[4,3-a]pyrazin-8(7H)-one] |
| 2000 nM | 3600 nM | 1300 nM | – | – | – | CCCc1nnc2c(=O)n(CC3CC3)ccn12 [7-(Cyclopropylmethyl)-3-propyl-[1,2,4]triazolo[4,3-a]pyrazin-8(7H)-one] |
| – | – | – | 46% | 37% | 57% | CCCc1nnc2c(=O)n(CC3COC3)ccn12 [7-(Oxetan-3-ylmethyl)-3-propyl-[1,2,4]triazolo[4,3-a]pyrazin-8(7H)-one] |
